The values below are quoted from earlier work in patent US20060062848A1, “Formulation comprising itraconazole” (Nektar Therapeutics UK Limited, priority 2004, published 2006).

One may read the aqueous solubility as how much of the substance goes into solution per volume.

Molecules are shown by their SMILES. Converted amounts (≈) assume the structure as drawn. Like-named read-outs stand apart in the source and are kept apart here.

Regarding `CCC(C)n1ncn(-c2ccc(N3CCN(c4ccc(OCC5CO[C@](Cn6cncn6)(c6ccc(Cl)cc6Cl)O5)cc4)CC3)cc2)c1=O` (mixture of isomers) [itraconazole, (±) cis-4-[4-[4-[4-[[2-(2,4-dichlorphenyl)-2-(1H-1,2,4-triazol-1-ylmethyl)-1,3-dioxolan-4-yl]methoxy]phenyl]-1-piperazinyl]phenyl]-2,4-dihydro-2-(1-methylpropyl)-3H-1,2,4-triazol-3-one], the aqueous solubility reads like this: (neutral pH) 0.001 µg/mL (≈ 0.00142 µM); (pH 1) 6 µg/mL (≈ 8.5 µM).
